Test results published in ChEMBL document CHEMBL1909638, “Amide isosteres in structure-activity studies of antibacterial minor groove binders” (2011).
In brackets after ≈: the same amount, converted by molar mass. One block for each molecule: values may come before it.

Tests used:
[1] = test system: Nucleic Acid; test: Binding affinity to 5'-GCGATATATGCG-3' DNA sequence in PBS buffer of pH 7.4 assessed as change in melting temperature by UV-VIS spectrophotometric analysis; type: nucleic-acid assay
[2] = test system: Candida albicans; test: Antifungal activity against Candida albicans by resazurine microtiter assay; type: functional
[3] = test system: Staphylococcus aureus; test: Antibacterial activity against Staphylococcus aureus isolate 1 by resazurine microtiter assay; type: functional
[4] = test system: Staphylococcus aureus; test: Antibacterial activity against Staphylococcus aureus isolate 2 by resazurine microtiter assay; type: functional
[5] = test system: Enterococcus faecalis; test: Antibacterial activity against Streptococcus faecalis by resazurine microtiter assay; type: functional
[6] = test system: Aspergillus niger; test: Antifungal activity against Aspergillus niger by resazurine microtiter assay; type: functional
[7] = test system: Mycolicibacterium aurum; test: Antimycobacterial activity against Mycobacterium aurum at 37 degC using Mueller-Hinton broth by resazurine microtiter assay; type: functional
[8] = test system: Staphylococcus aureus; test: Antibacterial activity against Staphylococcus aureus at 200 uM by resazurine microtiter assay; type: functional; design: scale not given here
[9] = test system: Nucleic Acid; test: Binding affinity to 5'-GCGATATATGCG-3' DNA sequence in PBS buffer of pH 7.4 assessed as increase in melting temperature by UV-VIS spectrophotometric analysis; type: nucleic-acid assay
[10] = test system: Staphylococcus aureus; test: Antibacterial activity against Staphylococcus aureus by resazurine microtiter assay; type: functional

MIC [7]: 8 µM (≈ 5.12 µg/mL)
ΔTm [9]: 19 °C
MIC [10]: 16 µM (≈ 10.2 µg/mL)
Structure (SMILES): COc1ccc(/C=C/c2ccc(C(=O)Nc3cc(C(=O)Nc4cc(C(=O)NCCN5CCOCC5)n(C)c4)n(C(C)C)c3)nc2)cc1
Activity [8]: 6.7%

MIC [7]: 2 µM (≈ 1.32 µg/mL)
ΔTm [9]: 18 °C
MIC [10]: < 1 µM
Structure (SMILES): CC(C)n1cc(NC(=O)c2ccc(/C=C/c3cnc4ccccc4c3)cc2)cc1C(=O)Nc1cc(C(=O)NCCN2CCOCC2)n(C)c1
Activity [8]: 2.3%

MIC [7]: 8 µM (≈ 5.12 µg/mL)
ΔTm [9]: 16 °C
MIC [10]: 4 µM (≈ 2.56 µg/mL)
Structure (SMILES): COc1ccc(/C=C/c2ccc(C(=O)Nc3cc(C(=O)Nc4cc(C(=O)NCCN5CCOCC5)n(C(C)C)c4)n(C)c3)nc2)cc1
Activity [8]: 8.5%

ΔTm [9]: 19 °C
MIC [2]: 25 µM (≈ 15.8 µg/mL)
MIC [3]: 3.1 µM (≈ 1.96 µg/mL)
MIC [4]: 12.5 µM (≈ 7.9 µg/mL)
MIC [5]: 25 µM (≈ 15.8 µg/mL)
ΔTm [1]: 18 °C
MIC [6]: 50 µM (≈ 31.6 µg/mL)
Structure (SMILES): Cn1cc(NC(=O)c2cc(NC(=O)c3ccc(/C=C/c4cnc5ccccc5c4)cc3)cn2C)cc1C(=O)NCCN1CCOCC1 [MGB-BP-3]

MIC [7]: 2 µM (≈ 1.35 µg/mL)
ΔTm [9]: 15 °C
MIC [10]: < 1 µM
Structure (SMILES): CCC(C)n1cc(NC(=O)c2ccc(/C=C/c3cnc4ccccc4c3)cc2)cc1C(=O)Nc1cc(C(=O)NCCN2CCOCC2)n(C)c1 (stereo not given)
Activity [8]: 2.9%

MIC [7]: 2 µM (≈ 1.32 µg/mL)
ΔTm [9]: 10 °C
MIC [10]: < 1 µM
Structure (SMILES): CC(C)n1cc(NC(=O)c2cc(NC(=O)c3ccc(/C=C/c4cnc5ccccc5c4)cc3)cn2C)cc1C(=O)NCCN1CCOCC1
Activity [8]: 0.8%

ΔTm [9]: 0 °C
Structure (SMILES): CCC(C)n1cc(NC(=O)c2cc(NC(=O)c3ccc(/C=C/c4cnc5ccccc5c4)cc3)cn2C)cc1C(=O)NCCN1CCOCC1 (stereo not given)
Activity [8]: 0.3%

Further lines, the molecule ahead of its results:

Structure (SMILES): CN(C)c1ccc(/N=N/c2ccc(C(=O)Nc3cc(C(=O)Nc4cc(C(=O)NCCN5CCOCC5)n(C)c4)n(C)c3)cc2)cc1
ΔTm [1]: 8 °C

Structure (SMILES): CN(C)c1ccc(C(=O)Nc2ccc(C(=O)Nc3cc(C(=O)Nc4cc(C(=O)NCCN5CCOCC5)n(C)c4)n(C)c3)cc2)cc1
ΔTm [1]: 18 °C

Structure (SMILES): CN(C)c1ccc(/C=C/c2ccc(C(=O)Nc3cc(C(=O)Nc4cc(C(=O)NCCN5CCOCC5)n(C)c4)n(C)c3)cc2)cc1
MIC [2]: 100 µM (≈ 62.4 µg/mL)
MIC [3]: > 100 µM
MIC [4]: > 100 µM
MIC [5]: > 100 µM
ΔTm [1]: 2 °C
MIC [6]: > 100 µM

Structure (SMILES): CCC(C)n1cc(NC(=O)c2ccc(/C=C/c3ccc(OC)cc3)cn2)cc1C(=O)Nc1cc(C(=O)NCCN2CCOCC2)n(C)c1 (stereo not given)
MIC [7]: 31 µM (≈ 20.3 µg/mL)
Activity [8]: 3.2%
ΔTm [9]: 16 °C
MIC [10]: 8 µM (≈ 5.23 µg/mL)

Structure (SMILES): COc1cccc(/N=N/c2ccc(C(=O)Nc3cc(C(=O)Nc4cc(C(=O)NCCN5CCOCC5)n(C)c4)n(C)c3)cc2)c1
ΔTm [1]: 1 °C

Structure (SMILES): CCC(C)n1cc(NC(=O)c2cc(NC(=O)c3ccc(/C=C/c4ccc(OC)cc4)cn3)cn2C)cc1C(=O)NCCN1CCOCC1 (stereo not given)
MIC [7]: 16 µM (≈ 10.5 µg/mL)
Activity [8]: 2.8%
ΔTm [9]: 13 °C
MIC [10]: 16 µM (≈ 10.5 µg/mL)

Structure (SMILES): COc1cccc(/C=C/c2ccc(C(=O)Nc3cc(C(=O)Nc4cc(C(=O)NCCN5CCOCC5)n(C)c4)n(C)c3)cc2)c1
MIC [2]: 100 µM (≈ 61.1 µg/mL)
MIC [3]: 12.5 µM (≈ 7.63 µg/mL)
MIC [4]: 25 µM (≈ 15.3 µg/mL)
MIC [5]: 6.25 µM (≈ 3.82 µg/mL)
MIC [6]: 50 µM (≈ 30.5 µg/mL)

Structure (SMILES): COc1cccc(C(=O)Nc2ccc(C(=O)Nc3cc(C(=O)Nc4cc(C(=O)NCCN5CCOCC5)n(C)c4)n(C)c3)cc2)c1
ΔTm [1]: 10 °C

Structure (SMILES): COc1ccc(/C=C/c2ccc(C(=O)Nc3cc(C(=O)Nc4cc(C(=O)NCCN5CCOCC5)n(C)c4)n(C)c3)nc2)cc1
ΔTm [9]: 16 °C

Structure (SMILES): Cn1cc(NC(=O)c2cc(NC(=O)c3ccc(/N=N/c4cnc5ccccc5c4)cc3)cn2C)cc1C(=O)NCCN1CCOCC1
MIC [2]: 25 µM (≈ 15.8 µg/mL)
MIC [3]: > 100 µM
MIC [4]: > 100 µM
MIC [5]: > 100 µM
ΔTm [1]: 17 °C
MIC [6]: 50 µM (≈ 31.7 µg/mL)

Structure (SMILES): Cn1cc(NC(=O)c2cc(NC(=O)c3ccc(NC(=O)c4cnc5ccccc5c4)cc3)cn2C)cc1C(=O)NCCN1CCOCC1
ΔTm [1]: 17 °C
